Data set [1] concerns the target T1, h-5-HT6 receptor (Homo sapiens, UniProt P50406).
T1 construct: expressed in transfected cells
Briefly: 5-HT6 receptor binding assay (displacement of [3H]-LSD). The conditions noted are these: cloned human 5-HT6 receptor, HEK293 membranes, 1 nM [3H]-LSD. The method, then: Displacement of radioligands binding to the following cloned human receptors
1. Preparation of Membranes by Ultrasonic Treatment and Differential Centrifugation
Cells from stable clonal cell lines expressing the corresponding receptor (5-HT6, α1-adrenergic, dopamine D2 or histamine H1 receptors) were washed with PBS (w/o Ca^++, Mg^++) and harvested in PBS with 0.02% EDTA. The cells were collected by centrifugation at 500 g for 10 min. at 4° C., washed with PBS and centrifuged (500 g, 10 min. 4° C.). The pellets were stored at −80° C. until use. For membrane preparation, the thawed cell pellet was resuspended in ice-cold sucrose buffer (0.25 M sucrose, 10 mM Hepes (pH 7.4), 1 mM Phenylmethylsulfonyl fluoride (PMSF) in DMSO, 5 μg/ml Pepstatin-A, 3 mM EDTA, 0.025% Bacitracin) and homogenized with a Branson Sonifier W-250 (Settings: Timer 4; Output Control 3; Duty Cycle constant; 2 to 3 cycles). Cell disruption was checked with the aid of a microscope. Remaining unbroken cells were pelleted at 1.000 g for 10 min. at 4° C. The sucrose buffer supernatant was then centrifuged at 60.000 g for 1 h at 4° C. (Beckman Ultrazentrifuge XL 80). The pellet was resuspended in 30 ml ice-cold Tris buffer (20 mM TRIS (pH 7.4), 5 μg/ml Pepstatin A, 0.1 mM PMSF, 3 mM EDTA) by pipetting through a 10 ml serological pipet and centrifuged for 1 h at 4° C. at 60.000 g. A final resuspension was performed in a small volume of ice-cold Tris buffer (see above) by pressing through a serological pipet followed by ultrasonic treatment with a Branson Sonifier W-250 (Settings: Timer 1; Output Control 3; Duty Cycle constant; 1 cycle). Protein concentration was determined (BCA-Kit; Pierce) and aliquots stored at −80° C. or in liquid nitrogen for long-term storage.
2. Receptor Binding Experiments
All receptor binding experiments were carried out in the corresponding assay buffer in a total volume of 200 μl in the presence of various concentrations of test compound (10^−5 M to 10^−9 M, tenfold serial dilution, duplicate determinations). The assays were terminated by filtration on polyethylenimine (PEI 0.1% or 0.3%) presoaked Packard Unifilter Plates (GF/C or GF/B) with a Tomtec MachIII U 96 well-plate harvester. After the plates had been dried for 2 h at 55° C. in a drying chamber scintillation cocktail (BetaPlate Scint; PerkinElmer) was added. Radioactivity was measured in a Microbeta Trilux two hours after the addition of the scintillation mixture. Data derived from liquid scintillation counting were analysed by iterative non-linear regression analysis with the use of the Statistical Analysis System (SAS): a program similar to “LIGAND” as described by Munson and Rodbard (Analytical Biochemistry 107, 220-239 (1980).
a) 5-HT6 Receptor Binding Assay
HEK293 cells stably expressing the h-5-HT6 receptor (NCBI Reference Sequence XM 001435) were cultured in RPMI1640 medium supplemented with 25 mM HEPES, 10% fetal calf serum and 1-2 mM glutamine. The membrane preparation was performed as described in section 1. […] Non-specific binding was defined with 1 μM methiothepin. The binding reaction was carried out for 3.5 h at room temperature. During the incubation, the plates were shaken on a plate shaker at 100 rpm and terminated by filtration on Packard Unifilter GF/C (0.1% PEI) plates, followed by 2 wash cycles with ice-cold 50 mM Tris-HCl, 5 mM CaCl2.
Data derived from liquid scintillation counting were analyzed by iterative non-linear regression analysis with the use of the Statistical Analysis System (SAS): a program similar to “LIGAND” as described by Munson and Rodbard (Anal. Biochem. 1980, 107, 220-239). Fitting was performed according to formulae described by Feldman (Anal. Biochem. 1972, 48, 317-338). IC50, nH and Ki values were expressed as geometrical mean.

The nature of data set [2]: Metabolic stability in human liver microsomes (microsomal clearance). In kind it is in vitro ADME. The conditions noted are these: pH 7.4; human liver microsomes 0.25 mg protein/mL, 0.5 μM compound, NADPH, 37° C.; read-out: mClint. The method, then:
Samples of the tested compounds (0.5 μM) were preincubated together with human liver microsomes (0.25 mg of microsomal protein/mL) in 0.05 M potassium phosphate buffer of pH 7.4 in microtiter plates at 37° C. for 5 minutes. The reaction was started by adding NADPH (1.0 mM). After 0, 5, 10, 15, 20 and 30 minutes, an aliquot was removed, the reaction was cooled and stopped by adding twice the amount of quench solution consisting of acetonitrile/methanol 1:1, and containing 0.2 μM carbutamide as internal standard. The samples were frozen until analyzed. The remaining concentration of undegraded test substance was determined by liquid chromatography-tandem mass spectrometry (LC-MS/MS). The half-life (t1/2) was determined from the gradient of the ratio of the signal of (test substance/internal standard)/unit time plot, allowing the calculation of the half-life of the test substance, assuming first order kinetics, from the decrease in the concentration of the compound with time. The microsomal clearance (mClint) was calculated as follows: mClint=((ln(2)/t 1/2)/Microsomal Protein Concentration (mg/ml))*1000, leading to the unit of μL/min/mg.

Counter-ions that a name gives are not always drawn. Where only a bound is given, the exact number is not on record here.

T1 sequence (P50406 whole entry): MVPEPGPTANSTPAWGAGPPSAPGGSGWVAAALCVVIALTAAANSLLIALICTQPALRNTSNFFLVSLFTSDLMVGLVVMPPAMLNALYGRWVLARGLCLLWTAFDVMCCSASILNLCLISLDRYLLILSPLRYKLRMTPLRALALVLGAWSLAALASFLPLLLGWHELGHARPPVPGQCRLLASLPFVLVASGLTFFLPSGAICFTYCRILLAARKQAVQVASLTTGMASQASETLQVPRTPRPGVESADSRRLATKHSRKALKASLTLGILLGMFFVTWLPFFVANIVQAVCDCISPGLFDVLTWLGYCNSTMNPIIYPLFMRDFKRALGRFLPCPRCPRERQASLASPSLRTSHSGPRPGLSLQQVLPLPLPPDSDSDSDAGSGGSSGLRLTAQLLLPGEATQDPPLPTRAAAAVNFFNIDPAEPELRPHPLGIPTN

The compound `O=S(=O)(c1ccccc1)c1cnc2c(N3C[C@H](O)[C@@H](O)C3)cccc2c1` [Example 32, (3S,4S)-1-[3-(Benzenesulfonyl)-8-quinolyl]pyrrolidine-3,4-diol] came in with a Ki in data set [1] of less than 10 nM. For the same compound, the microsomal CLint at 0.5 μM in data set [2] is 30 to 60 µL/min/mg.

In turn, `Cc1ccc(O)c(S(=O)(=O)c2cnc3c(N4CCC(O)CC4)cccc3c2)c1` [Example 28, 1-[3-(2-Hydroxy-5-methyl-phenyl)sulfonyl-8-quinolyl]piperidin-4-ol] returned a Ki in data set [1] of 10 to 100 nM. In data set [2], the microsomal CLint at 0.5 μM is 30 to 60 µL/min/mg.

With `COc1ccccc1S(=O)(=O)c1cnc2c(N3CCC(O)CC3)cccc2c1` [Example 21, 1-[3-(2-Methoxyphenyl)sulfonyl-8-quinolyl]piperidin-4-ol], the Ki in data set [1] was in the range of 10 to 100 nM. Besides, the microsomal CLint at 0.5 μM in data set [2] was in the range of 60 to 120 µL/min/mg.

`O=C(O)C1CCN(c2cccc3cc(S(=O)(=O)c4ccccc4)cnc23)CC1` [Example 37, 1-[3-(Benzenesulfonyl)-8-quinolyl]piperidine-4-carboxylic Acid]: the Ki in data set [1] was in the range of 10 to 100 nM. The microsomal CLint at 0.5 μM in data set [2] is less than 30 µL/min/mg.

In the case of `O=S(=O)(c1cccc(C(F)(F)F)c1)c1cnc2c(N3CCC(O)CC3)cccc2c1` [Example 1, 1-[3-(3-Trifluoromethyl-benzenesulfonyl)-quinolin-8-yl]-piperidin-4-ol], in data set [1], the Ki is less than 10 nM. Also, the microsomal CLint at 0.5 μM in data set [2] fell in the range of 30 to 60 µL/min/mg.

In data set [1], `O=S(=O)(c1ccccc1)c1cnc2c(N3C[C@H](O)C[C@H](O)C3)cccc2c1` [Example 36, (3R,5S)-1-[3-(Benzenesulfonyl)-8-quinolyl]piperidine-3,5-diol] returned a Ki of less than 10 nM. Further, in data set [2], the microsomal CLint at 0.5 μM was less than 30 µL/min/mg.

Regarding `O=S(=O)(c1ccccc1)c1cnc2c(N3CCC(O)CC3)cccc2c1` [Example 18, 1-[3-(Benzenesulfonyl)-8-quinolyl]piperidin-4-ol], the Ki in data set [1] was less than 10 nM. The microsomal CLint at 0.5 μM in data set [2] is less than 30 µL/min/mg.

Take `O=S(=O)(c1cccc(C(F)(F)F)c1)c1cnc2c(N3CC[C@@H](O)C3)cccc2c1` [Example 19, (3R)-1-[3-[3-(Trifluoromethyl)phenyl]sulfonyl-8-quinolyl]pyrrolidin-3-ol]: the Ki in data set [1] lay in the range of 10 to 100 nM. Besides, the microsomal CLint at 0.5 μM in data set [2] was in the range of 30 to 60 µL/min/mg.

In data set [1], `O=C(O)C1CCN(c2cccc3cc(S(=O)(=O)c4cccc(OC(F)F)c4)cnc23)CC1` [Example 31, 1-[3-[3-(Difluoromethoxy)phenyl]sulfonyl-8-quinolyl]piperidine-4-carboxylic Acid] returned a Ki of 10 to 100 nM. In addition, in data set [2], the microsomal CLint at 0.5 μM was less than 30 µL/min/mg.

For the compound `COc1ccccc1S(=O)(=O)c1cnc2c(N3CC(O)C3)cccc2c1` [Example 39, 1-[3-(2-Methoxyphenyl)sulfonyl-8-quinolyl]azetidin-3-ol], in data set [1], the Ki was in the range of 10 to 100 nM. The microsomal CLint at 0.5 μM in data set [2] was in the range of 60 to 120 µL/min/mg.

Consider `O=S(=O)(c1ccccc1)c1cnc2c(N3CCC[C@H](O)C3)cccc2c1` [Example 22, (3S)-1-[3-(Benzenesulfonyl)-8-quinolyl]piperidin-3-ol], for which, in data set [1], the Ki lay in the range of 10 to 100 nM. The microsomal CLint at 0.5 μM in data set [2] was in the range of 30 to 60 µL/min/mg.

`O=S(=O)(c1ccccc1)c1cnc2c(N3C[C@@H](O)[C@@H](O)C3)cccc2c1` [Example 42, (3R,4S)-1-[3-(Benzenesulfonyl)-8-quinolyl]pyrrolidine-3,4-diol] had a Ki in data set [1] of less than 10 nM. Also, the microsomal CLint at 0.5 μM in data set [2] was less than 30 µL/min/mg.

In data set [1], `O=S(=O)(c1cccc(N2CCC(O)CC2)c1)c1cnc2c(N3CCC(O)CC3)cccc2c1` [Example 16, 1-[3-[[8-(4-Hydroxy-1-piperidyl)-3-quinolyl]sulfonyl]phenyl]piperidin-4-ol] yielded a Ki of 10 to 100 nM. The microsomal CLint at 0.5 μM in data set [2] is 30 to 60 µL/min/mg.

The compound `O=S(=O)(c1cccc(C(F)(F)F)c1)c1cnc2c(N3CC(O)C3)cccc2c1` [Example 8, 1-[3-[3-(Trifluoromethyl)phenyl]sulfonyl-8-quinolyl]azetidin-3-ol] yielded a Ki in data set [1] of less than 10 nM. Also, the microsomal CLint at 0.5 μM in data set [2] lay in the range of 30 to 60 µL/min/mg.

Compound `O=S(=O)(c1cccc(F)c1)c1cnc2c(N3CCC(O)CC3)cccc2c1` [Example 9, 1-[3-(3-Fluorophenyl)sulfonyl-8-quinolyl]piperidin-4-ol] registered a Ki in data set [1] of less than 10 nM. The microsomal CLint at 0.5 μM in data set [2] was less than 30 µL/min/mg.

`O=S(=O)(c1ccccc1)c1cnc2c(N3CC[C@H](O)C3)cccc2c1` [Example 30, (3S)-1-[3-(Benzenesulfonyl)-8-quinolyl]pyrrolidin-3-ol] gave a Ki in data set [1] of less than 10 nM. For the same compound, the microsomal CLint at 0.5 μM in data set [2] was 60 to 120 µL/min/mg.

`COc1cccc(S(=O)(=O)c2cnc3c(N4CCC(C(=O)O)CC4)cccc3c2)c1` [Example 15, 1-[3-(3-Methoxyphenyl)sulfonyl-8-quinolyl]piperidine-4-carboxylic Acid]: the Ki in data set [1] fell in the range of 100 to 500 nM. Also, the microsomal CLint at 0.5 μM in data set [2] is less than 30 µL/min/mg.

`O=S(=O)(c1ccccc1)c1cnc2c(N3C[C@@H](O)[C@H](O)C3)cccc2c1` [Example 45, (3R,4R)-1-[3-(Benzenesulfonyl)-8-quinolyl]pyrrolidine-3,4-diol] showed a Ki in data set [1] of less than 10 nM. The microsomal CLint at 0.5 μM in data set [2] was less than 30 µL/min/mg.

In turn, `O=C(O)C1CN(c2cccc3cc(S(=O)(=O)c4cccc(C(F)(F)F)c4)cnc23)C1` [Example 44, 1-[3-[3-(Trifluoromethyl)phenyl]sulfonyl-8-quinolyl]azetidine-3-carboxylic Acid] gave a Ki in data set [1] of 10 to 100 nM. Further, the microsomal CLint at 0.5 μM in data set [2] is less than 30 µL/min/mg.

For the compound `O=S(=O)(c1cccc(F)c1)c1cnc2c(N3CC(O)C3)cccc2c1` [Example 10, 1-[3-(3-Fluorophenyl)sulfonyl-8-quinolyl]azetidin-3-ol], in data set [1], the Ki is less than 10 nM. Moreover, in data set [2], the microsomal CLint at 0.5 μM was 30 to 60 µL/min/mg.

`O=S(=O)(c1cccc(C(F)(F)F)c1)c1cnc2c(N3CCC[C@H](O)C3)cccc2c1` [Example 4, (S)-1-[3-(3-Trifluoromethyl-benzenesulfonyl)-quinolin-8-yl]-piperidin-3-ol Hydrochloride] came in with a Ki in data set [1] of less than 10 nM. Moreover, the microsomal CLint at 0.5 μM in data set [2] is 60 to 120 µL/min/mg.

On to `CC1(O)CCN(c2cccc3cc(S(=O)(=O)c4cccc(C(F)(F)F)c4)cnc23)CC1` [Example 7, 4-Methyl-1-[3-[3-(trifluoromethyl)phenyl]sulfonyl-8-quinolyl]piperidin-4-ol Hydrochloride], for which the Ki in data set [1] is less than 10 nM. In addition, the microsomal CLint at 0.5 μM in data set [2] lay in the range of 60 to 120 µL/min/mg.

In turn, `O=S(=O)(c1cccc(F)c1)c1cnc2c(N3CC[C@@H](O)C3)cccc2c1` [Example 33, (3R)-1-[3-(3-Fluorophenyl)sulfonyl-8-quinolyl]pyrrolidin-3-ol] returned a Ki in data set [1] of less than 10 nM. Moreover, the microsomal CLint at 0.5 μM in data set [2] was in the range of 30 to 60 µL/min/mg.

By Ki is commonly meant a measure of affinity in units of concentration, obtained from inhibition or displacement. Low values mean tighter binding, high ones weaker binding.

Values taken from patent US10160744B2, “Quinoline compounds suitable for treating disorders that respond to the modulation of the serotonin 5-HT6 receptor” (Abbvie Deutschland GmbH & Co. KG, priority 2016, dated 2018).
